For the assay, the target named is T1, Y91F-rPepT1 (Oryctolagus cuniculus, UniProt P36836, Y91F).
T1 construct: expressed in transfected cells; host or cells: Xenopus laevis oocytes injected with cRNA
T1 sequence (P36836 1-707 Y91F): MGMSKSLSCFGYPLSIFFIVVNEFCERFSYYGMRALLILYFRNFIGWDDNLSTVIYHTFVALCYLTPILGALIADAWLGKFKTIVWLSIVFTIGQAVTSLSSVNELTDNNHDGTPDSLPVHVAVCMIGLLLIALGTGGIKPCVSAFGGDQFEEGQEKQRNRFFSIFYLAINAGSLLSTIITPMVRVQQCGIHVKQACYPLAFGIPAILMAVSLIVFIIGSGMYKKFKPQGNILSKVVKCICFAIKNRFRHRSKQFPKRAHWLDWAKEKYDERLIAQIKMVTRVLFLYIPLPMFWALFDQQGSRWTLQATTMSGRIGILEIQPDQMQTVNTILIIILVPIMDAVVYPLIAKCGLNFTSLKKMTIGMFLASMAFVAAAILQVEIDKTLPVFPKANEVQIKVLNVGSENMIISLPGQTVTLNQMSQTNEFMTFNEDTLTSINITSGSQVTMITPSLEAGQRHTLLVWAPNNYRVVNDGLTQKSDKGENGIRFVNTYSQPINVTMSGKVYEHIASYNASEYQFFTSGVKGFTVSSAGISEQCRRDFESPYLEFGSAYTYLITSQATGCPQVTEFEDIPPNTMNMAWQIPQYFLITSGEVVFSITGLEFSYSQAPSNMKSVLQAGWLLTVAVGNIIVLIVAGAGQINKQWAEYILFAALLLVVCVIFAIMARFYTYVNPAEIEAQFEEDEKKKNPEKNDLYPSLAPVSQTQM
The assay is described as follows: Uptake of tracer [3H]-D-Phe-L-Gln into Xenopus oocytes. Conditions: corrected for surface expression; versus wild-type. It counts as cell-based, rabbit. The procedure:
rPepT1 constructs were linearised with XbaI (New England Biolabs, UK) and cRNA generated by in vitro transcription (T7 mMessage mMachine, Ambion, Cambridgeshire, UK). Xenopus laevis oocytes were obtained under MS222 anaesthesia (0.2%, w/v) in accordance with the UK Animals (Scientific Procedures) Act, 1986, and maintained at 18 °C in modified Barth's medium (88 mM NaCl, 1 mM KCl, 0.82 mM MgSO4, 2.4 mM NaHCO3, 0.42 mM CaCl2, 10 mM Hepes, 5 mM sodium pyruvate, 50 μg ml^−1 gentamicin (Fluka, Poole, UK), adjusted to pH 7.6 with 1 M NaOH). Transport measurements were performed at least 72 h after micro-injection of oocytes with 27nl cRNA (1 μg/μl), with medium changed daily.
Uptake of [^3H]-D-Phe-L-Gln (17.4 Ci/mmole, custom synthesised, Cambridge Research Biochemicals, Stockton-on-Tees, UK) was performed as previously described ([Meredith, 2004]). […] After incubation, the oocytes were washed sequentially five times in 1 ml of ice-cold 120 mM NaCl solution, lysed individually with 100 μl 2% (w/v) SDS and liquid scintillation counted. […]
Luminometry assays were performed as described previously ([Panitsas et al., 2006]). […] Luminometer (Turner-Designs 20/20, Promega) readings for at least 15 oocytes per data point were taken immediately.

Take [^3H]-D-Phe-L-Gln: the “decrease in the rate of transport per protein molecule” value is 40%.
